Measurements taken from PMC9816206 (Archives of Toxicology, 2022).

Legend:
[1] = system: cell cycle regulation and DNA damage repair; conditions: transcriptomics approach; ref Abdelfatah et al. [2022]; cited from earlier work
MRP2 efflux transporter = target: T1, MRP2 efflux transporter (Homo sapiens, UniProt Q92887); assay: MRP2 efflux transporter activity, intracellular calcein fluorescence retention; assay type: cell-based; conditions: HepG2 cells; calcein substrate; benzbromarone 10 µM; data not shown
T1 construct: endogenous in cells; host or cells: HepG2

[2] = system: HeLa H2B-GFP cells co-cultured with HepG2 cells; assay: Micronucleus assay in co-culture after pretreatment with inhibitors of metabolic enzymes and efflux transporters; conditions: then Las 10 µM, Rid 100 µM, vs no pretreatment
Protocol: Since the analysis was limited to HeLa H2B-GFP cells in these experiments, cytochalasin B (at final concentration 3 µg/ml) exposure was 20 h.
Transmembrane transporters may enhance or decrease PA-mediated effects. […] The idea was that metabolites formed in hepatocytes may not reach HeLa H2B-GFP cells to the same extent. […] Then, the co-culture was exposed to PAs for 28 h, followed by 3 µg/ml cytochalasin B for 20 h.

HSEC = conditions: PAs metabolized by HepaRG human hepatocyte cells in Transwell co-culture; ref Lu et al. [2019]; cited from earlier work
HeLa H2B-GFP cells [3] = assay: Cytokinesis-block micronucleus (CBMN) assay, HeLa H2B-GFP cells cultured alone; assay type: cell-based, human; conditions: lasiocarpine 10 µM, riddelliine 100 µM, europine 320 µM; 28 h; vs solvent control (DMSO); n = 3
Protocol: (§1) The study of genomic damage was performed in a six-well plate in which one well consisted of only HepG2 cells, one well of only HeLa H2B-GFP cells and further wells containing both cell types in co-culture. To achieve this, 190, 000 of HeLa H2B-GFP cells per 3ml, 150,000 of HepG2 cells per 3ml and 40,000 HeLa H2B-GFP plus 150,000 HepG2 for the co-culture per 3ml were seeded and incubated overnight. As culture medium, the HepG2 cell medium was used for all cells. […] At this point, slides were coded and for each test sample micronuclei were scored in 1000 binucleated HeLa H2B-GFP cells in the co-culture and HeLa H2B-GFP cells, and in 1000 binucleated HepG2 cells in the HepG2 cell culture, at 400-fold magnification with an Eclipse 55i fluorescence microscope using a fluorescein isothiocyanate (FITC) filter (Nikon GmbH, Japan). The numbers of mononucleated cells (MN), binucleated cells (BN), trinucleated cells (TriN), and tetranucleated cells (TetraN) in 1000 cells were also scored. The cytokinesis-block proliferation index (CBPI) was calculated from that as a criterion for determining the cytotoxic effect using the following formula: CBPI=1×MN+2×BN+3×TriN+4×TetraN/MN+BN+TriN+TetraN.

[4] = system: HeLa H2B-GFP cells co-cultured with HepG2 cells; assay: Cytokinesis-block micronucleus (CBMN) assay, HeLa H2B-GFP cells scored in co-culture with HepG2; assay type: cell-based, human; conditions: lasiocarpine 10 µM, riddelliine 100 µM, europine 320 µM; 28 h; vs solvent control (DMSO); n = 3
Protocol: as §1

HeLa H2B-GFP cells [5] = assay: Analysis of mitotic figures, HeLa H2B-GFP cells cultured alone; assay type: cell-based, human; conditions: 28 h; Las 10 µM, Rid 100 µM, Ep 160 µM; vs DMSO solvent control
Protocol: (§2) The characterization of mitotic cells in fixed cell preparations was performed as described in Baudoin and Cimini [(2018]). […] Thereafter, cells were harvested and the microscopic slides prepared as described for micronucleus analysis. The mitotic index (MI; % cells in mitosis) was assessed by counting and adding up the number of cells in the mitotic stages prophase, metaphase, anaphase and telophase in 1000 cells.
(§3) Disturbed mitoses were defined as mitotic figures deviating from the typical appearance of mitoses and were assessed in 300 mitotic cells per slide. We classified the mitotic disturbances into the following categories (Figs. 2, 3):
(§4) Metaphase: no metaphase plate arrangement, non-congression of individual chromosomes to the metaphase plate, multipolar (tripolar and more than tripolar) arrangement of chromosomes and elongated chromosomes/chromatids.
(§5) Anaphase: bridges, lagging chromosome(s), combination of bridges and lagging chromosome, and multipolar (tripolar and more than tripolar) arrangement of chromosomes.
(§6) Telophase: same analysis as for anaphase cells.
(§7) If a cell harboured more than one type of disturbance, it was added to each category (e.g. multipolar, lagging chromosome(s) and bridges).

HepG2 cells [6] = assay: Cytokinesis-block micronucleus (CBMN) assay, HepG2 cells cultured alone; assay type: cell-based, human; conditions: lasiocarpine 10 µM, riddelliine 100 µM, europine 320 µM; 28 h; vs solvent control (DMSO); n = 3
Protocol: as §1

DNA [7] = system: DNA; parameters: method as in Hadi et al. [2021]; conditions: ref Hadi et al. [2021]; cited from earlier work
[8] = system: HeLa H2B-GFP cells co-cultured with HepG2 cells; assay: Analysis of mitotic figures, HeLa H2B-GFP cells of the co-culture; assay type: cell-based, human; conditions: for mitotic index in co-culture / arrest in metaphase of mitosis (detectable as elevated mitotic index): 28 h, Las 10 µM, Rid 100 µM, Ep 160 µM; for mitotic index in co-culture: vs DMSO solvent control; for arrest in metaphase of mitosis (detectable as elevated mitotic index): vincristine 10 ng/ml (positive control)
Protocol: as §2, §3, §4, §5, §6, §7

HepG2 cells [9] = assay: Analysis of mitotic figures, HepG2 cells cultured alone; assay type: cell-based, human; conditions: 28 h; Las 10 µM, Rid 100 µM, Ep 160 µM; vs DMSO solvent control
Protocol: as §2, §3, §4, §5, §6, §7

V79 hamster cells = conditions: metabolically incompetent V79 cells with or without human CYP450-3A4; ref Ebmeyer et al. [(2019]); cited from earlier work
DNA [10] = system: DNA; parameters: method as in Hincks et al. [1991]; conditions: ref Hincks et al. [1991]; cited from earlier work

T1 sequence (Q92887 whole entry): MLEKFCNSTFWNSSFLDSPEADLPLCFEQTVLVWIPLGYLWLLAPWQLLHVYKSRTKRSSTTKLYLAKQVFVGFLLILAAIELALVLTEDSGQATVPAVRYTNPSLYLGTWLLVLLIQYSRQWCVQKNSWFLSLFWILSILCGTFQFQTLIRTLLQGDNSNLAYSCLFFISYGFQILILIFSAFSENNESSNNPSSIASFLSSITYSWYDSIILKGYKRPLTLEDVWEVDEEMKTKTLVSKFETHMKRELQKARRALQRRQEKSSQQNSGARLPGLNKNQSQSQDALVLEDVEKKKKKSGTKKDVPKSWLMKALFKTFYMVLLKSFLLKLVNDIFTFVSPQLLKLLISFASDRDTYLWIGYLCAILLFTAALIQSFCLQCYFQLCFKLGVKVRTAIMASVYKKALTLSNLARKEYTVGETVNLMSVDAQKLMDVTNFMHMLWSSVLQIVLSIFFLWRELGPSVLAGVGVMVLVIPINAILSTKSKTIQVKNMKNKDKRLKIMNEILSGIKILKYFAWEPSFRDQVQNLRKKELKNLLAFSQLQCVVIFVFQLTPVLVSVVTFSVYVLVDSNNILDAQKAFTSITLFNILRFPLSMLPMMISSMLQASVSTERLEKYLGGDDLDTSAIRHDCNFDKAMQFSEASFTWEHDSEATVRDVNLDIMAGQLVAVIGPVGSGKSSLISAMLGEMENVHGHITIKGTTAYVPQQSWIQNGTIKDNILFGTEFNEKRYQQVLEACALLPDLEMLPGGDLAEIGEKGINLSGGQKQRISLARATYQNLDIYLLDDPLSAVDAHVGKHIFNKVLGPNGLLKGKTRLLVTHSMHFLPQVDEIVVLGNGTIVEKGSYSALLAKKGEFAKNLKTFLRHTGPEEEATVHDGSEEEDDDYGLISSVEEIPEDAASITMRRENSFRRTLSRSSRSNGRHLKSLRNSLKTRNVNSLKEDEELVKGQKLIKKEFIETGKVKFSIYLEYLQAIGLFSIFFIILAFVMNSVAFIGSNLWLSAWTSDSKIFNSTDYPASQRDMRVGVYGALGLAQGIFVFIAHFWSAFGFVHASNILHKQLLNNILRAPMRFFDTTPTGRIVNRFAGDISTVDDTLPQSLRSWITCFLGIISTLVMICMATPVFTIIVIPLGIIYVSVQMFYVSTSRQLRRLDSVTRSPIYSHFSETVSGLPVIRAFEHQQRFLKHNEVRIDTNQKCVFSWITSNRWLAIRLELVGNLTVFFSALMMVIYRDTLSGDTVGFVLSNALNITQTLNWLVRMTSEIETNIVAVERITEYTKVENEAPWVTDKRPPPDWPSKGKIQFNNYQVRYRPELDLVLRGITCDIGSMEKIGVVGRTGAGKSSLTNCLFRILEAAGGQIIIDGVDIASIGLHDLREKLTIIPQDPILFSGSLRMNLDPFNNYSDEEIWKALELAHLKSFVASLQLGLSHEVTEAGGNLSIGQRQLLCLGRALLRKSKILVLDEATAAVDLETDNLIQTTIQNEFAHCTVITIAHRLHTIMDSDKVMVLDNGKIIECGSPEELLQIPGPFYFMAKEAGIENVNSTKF

CC(C)[C@](O)(C(=O)OCC1=CCN2CC[C@@H](O)[C@@H]12)[C@@H](C)O (stereo in doubt) [lycopsamine]
interference with cell cycle regulation and DNA damage repair [1]: interfered with cell cycle regulation and DNA damage repair

CCc1oc2ccccc2c1C(=O)c1cc(Br)c(O)c(Br)c1 [benzbromarone]
activity of MRP2 efflux transporter (calcein fluorescence retention) (MRP2 efflux transporter): significantly reduced | lasiocarpine-, riddelliine- and europine-induced micronucleus formation in HeLa H2B-GFP cells after efflux transporter inhibitor pretreatment ([2]; verapamil 50 µM, benzbromarone 10 µM or both, 24 h pretreatment, Ep 160 µM for 28 h): significantly reduced

C=C/C1=C/[C@H](C)[C@](C)(OC(C)=O)C(=O)OC/C2=C/CN(C)CC[C@@H](OC1=O)C2=O [clivorine]
cytotoxicity in HSEC (HSEC): concentration-dependent cytotoxicity

C/C=C(/C)C(=O)O[C@@H]1CCN2CC=C(COC(=O)[C@@](O)([C@H](C)O)C(C)(C)O)[C@H]12 [echimidine]
interference with cell cycle regulation and DNA damage repair [1]: interfered with cell cycle regulation and DNA damage repair

COC(C)C(O)(C(=O)OCC1=CCN2CCC(O)C12)C(C)(C)O (centres unmarked) [europine]
micronucleus formation in HeLa H2B-GFP cells cultured alone (HeLa H2B-GFP cells [3]): not if cultured alone | micronucleus formation in HeLa H2B-GFP cells in the co-culture [4]: induced micronucleus formation significantly | mitotic index in HeLa H2B-GFP cells cultured alone (HeLa H2B-GFP cells [5]): no change | micronucleus induction in HepG2 cells cultured alone (HepG2 cells [6]): induced micronuclei | induction of DNA cross-links (DNA [7]): did not | mitotic index in co-culture [8]: significantly decreased | ana-/telophase bridges ([8]; in 300 mitotic cells, Ep 160 µM compared with Las 10 µM and Rid 100 µM, concentrations causing a similar number of micronuclei): less ana-/telophase bridges than the two diesters | arrest in metaphase of mitosis (detectable as elevated mitotic index) [8]: not | mitotic index in HepG2 cells (HepG2 cells [9]): significantly decreased

CC(=O)N1CCN(c2ccc(OCC3COC(Cn4ccnc4)(c4ccc(Cl)cc4Cl)O3)cc2)CC1 (centres unmarked) [ketoconazole]
lasiocarpine-, riddelliine- and europine-induced micronucleus formation after CYP450-3A4 inhibitor pretreatment ([2]; ketoconazole 1 µM 24 h pretreatment, Ep 320 µM for 28 h): significantly reduced

C/C=C(/C)C(=O)O[C@H]1CCN2CC=C(COC(=O)[C@@](O)([C@H](C)OC)C(C)(C)O)[C@H]12 [lasiocarpine]
interference with cell cycle regulation and DNA damage repair [1]: interfered with cell cycle regulation and DNA damage repair | genotoxicity in V79 hamster cells (V79 hamster cells): only genotoxic in metabolically incompetent V79 hamster cells if they had been genetically engineered to harbour human CYP450-3A4

C[C@H]1C(=O)O[C@@H]2CCN3CC=C(COC(=O)[C@](C)(O)[C@]1(C)O)[C@H]23 [monocrotaline]
cytotoxicity in HSEC (HSEC): concentration-dependent cytotoxicity | interference with cell cycle regulation and DNA damage repair [1]: interfered with cell cycle regulation and DNA damage repair

C=C1C/C(=C/C)C(=O)O[C@@H]2CCN3CC=C(COC(=O)[C@@]1(O)CO)[C@H]23 [riddelliine]
DNA cross-linker potency (DNA [10]): more potent DNA cross-linker than heliosupine | micronucleus formation in HeLa H2B-GFP cells cultured alone (HeLa H2B-GFP cells [3]): not if cultured alone | micronucleus formation in HeLa H2B-GFP cells in the co-culture [4]: induced micronucleus formation significantly | mitotic index in HeLa H2B-GFP cells cultured alone (HeLa H2B-GFP cells [5]): did not cause significant alterations | micronucleus induction in HepG2 cells cultured alone (HepG2 cells [6]): induced micronuclei | interference with cell cycle regulation and DNA damage repair [1]: interfered with cell cycle regulation and DNA damage repair | mitotic index in co-culture [8]: did not cause significant alterations | arrest in metaphase of mitosis (detectable as elevated mitotic index) [8]: not | mitotic index in HepG2 cells (HepG2 cells [9]): did not cause significant alterations

CC[C@]1(O)C[C@H]2CN(CCc3c([nH]c4ccccc34)[C@@](C(=O)OC)(c3cc4c(cc3OC)N(C=O)[C@H]3[C@@](O)(C(=O)OC)[C@H](OC(C)=O)[C@]5(CC)C=CCN6CC[C@]43[C@@H]65)C2)C1 [vincristine, reference compound]
arrest in metaphase of mitosis (detectable as elevated mitotic index) [8]: arrest in metaphase of mitosis
